Experimental data from a melting point compilation (Tetko et al.; mined from patent text by program, amines drawn as free bases though some values may be those of a salt).

| Compound | melting point [°C] |
| --- | --- |
| Cc1cc(NC(=O)C(C)(O)COc2cccc(F)c2F)ccc1[N+](=O)[O-] (configuration not stated) | 68 to 73 |
| CN(Sc1ccccc1)C(=O)Oc1cccc2c1OC(C)(C)C2 | 66 |
| COC(=O)c1cc(-c2ccccc2)sc1Nc1ccc(F)cc1[N+](=O)[O-] | 150 |
| COc1cc(N)c(C#N)cc1C(=O)O | 237 |
| CCOCc1nc2c(N)nc3cccnc3c2n1CC(C)(C)O | 157 to 159 |
| COc1cc(OC)nc(Oc2cccc3c2C(=O)OC3SC#N)n1 (configuration not stated) | 161 to 163 |
| O=C(NCc1ccccc1)c1ccnc(N2CCN(CC3CC3)C2=O)c1 | 121 to 123 |
| CCCOc1c(OCCCN2C(=O)c3ccccc3C2=O)cc(C2CCC(c3cc(OC)c(OC)c(OC)c3)O2)cc1S(=O)(=O)CCC (configuration not stated) | 195 to 196 |
| CCOC(=O)c1cc2cc(F)cc(Br)c2[nH]1 | 125 |
| COc1ccc(CNC(=O)N(C)O)cc1OC | 132 to 133 |
| C[C@@H](Cn1ncc2ccc3oc(C(=O)OCc4ccccc4)cc3c21)NC(=O)OCc1ccccc1 | 140 to 141 |
| Cc1ncccc1C(C#N)N1CCN(C(=O)CC(NC(=O)Cc2cccc(OCc3ccc4ccccc4n3)c2)c2ccccc2)CC1 (configuration not stated) | 83 to 86 |
| CS(=O)(=O)c1ccc(-c2cnn(CC(F)(F)F)c(=O)c2N)cc1 | > 260 |
| CC(=O)NC(CSC(=O)c1ccccc1OC(C)=O)C(=O)O (configuration not stated) | 120 to 122 |
| Cc1cccc(NC(=O)NC2N=C(c3ccccc3F)c3ccccc3N(CC(=O)NC3C4CC5CC(C4)CC3C5)C2=O)c1 (configuration not stated) | 245 to 246 |
| Cn1cc(C#N)c(Nc2ccc(Cl)cc2[N+](=O)[O-])n1 | 205 |
| COc1cccc(C(O)CN(C)Cc2sc3c(=O)c(C(=O)NCc4ccc(Cl)cc4)cn(C)c3c2CO)c1 (configuration not stated) | 165 to 168 |
| CCCN1C(=O)/C(=C/c2c[nH]c3ncccc23)N=C1C | 206 |
| CC(C)CCNc1nc(-c2ccccc2)c(-c2ccnc(Nc3ccccc3)n2)s1 | 170 to 172 |
| Cc1c(Br)c2c(c(C)c1NC(=O)OC(C)(C)C)C(=O)C(C)(C)O2 | 131 to 132 |
| CCN1CCN(S(=O)(=O)c2ccc(C(CC3CCCC3)C(=O)Nc3nc4ccc(OC)nc4s3)cc2)CC1 (configuration not stated) | 106 to 110 |
| COC(=O)CCc1cc2cc(Cl)ccc2n1S(=O)(=O)c1ccc(NC(C)=O)cc1 | 154 to 157 |
| CC(C)(C)[Si](C)(C)Oc1ccc(NC(=O)CN2CCC(O)(Cc3ccccc3)CC2)cc1 | 105 to 108 |
| NC(=O)CNC(=O)COc1ccccc1 | 138 to 140 |
| CCCCCNc1cc(C(=O)O)cc(S(N)(=O)=O)c1Oc1ccccc1 | 223 to 224 |
| c1cc2nc3c(n2nc1N1CCOCC1)CCCC3 | 188 |

| Compound | melting point [°C] |
| --- | --- |
| O=C(O)C1CCc2cc(C3CCCCCC3)c(Cl)cc21 (configuration not stated) | 138 to 140 |
| CC(C)CCc1ccc(C=CC(O)=S)cc1 | 132 to 133 |
| BrCc1cccc(-c2cccc(CBr)n2)n1 | 180 to 181 |
| OC(c1ccccn1)c1cc2ccncc2[nH]1 (configuration not stated) | 166 to 169 |
| CCOC(=O)c1cn(-c2ccc(C(F)(F)F)cn2)nc1C1CCCCC1 | 99 to 100 |
| CCCCNc1nc(-c2ccccc2)co1 | 52 to 53 |
| CCCCOC(=O)C(=O)Nc1ccccn1 | 35 to 37 |
| OC1CCc2cc(Cl)c(Cl)cc21 (configuration not stated) | 84 |
| CCCCN(Cc1ccc2c(Br)c(OCc3nnn[nH]3)ccc2c1)C(=O)c1c(C)oc2ccccc12 | 204 to 206 |
| COc1cc(OC)cc(C(NCC(=O)Nc2c(C(C)C)cccc2C(C)C)c2ccccc2)c1 (configuration not stated) | 111 to 112 |
| CON=C(C)CCCn1c(C)nc2c(N)nc3ccccc3c21 | 158 to 161 |
| CC1(C)Oc2cc([N+](=O)[O-])sc2C(N2CCCC2=O)C1O (configuration not stated) | 214 to 217 |
| CCCC(=O)Nc1n[nH]c2c([N+](=O)[O-])c(Br)ccc12 | 248 |
| COc1cc(C=O)ccc1OCc1nc(-c2ccccc2)cn1C | 128 to 129 |
| CCOC(=O)C(=O)c1nsc(NC(=O)c2ccccc2)n1 | 178 to 180 |
| CC(C)(CO)NC(=O)c1nn(-c2ccc(Cl)cc2)c2c1C1CCC2C1 (configuration not stated) | 167 to 169 |
| CCOC(=O)c1ccc(NC(=O)c2cc(Cl)ccc2OC)cc1OCC | 108 to 111 |
| CCOC(=O)c1[nH]c(CC2CCC2)nc1C(F)(F)F | 136 to 138 |
| NC(=O)c1sc2nc(N3CCC(NCC(O)c4cc5ccccc5cn4)CC3)cc(C(F)(F)F)c2c1N (configuration not stated) | 169 to 172 |
| COc1ccc(C#N)c(ON=C(C)C)c1 | 78 to 79 |
| CC(C(=O)O)c1ccc(-c2ccc(Br)cc2Br)cc1 (configuration not stated) | 114 to 116 |
| O=[N+]([O-])c1cccnc1Oc1ccc2c(c1)OCC(c1ccccc1)O2 (configuration not stated) | < 60 |
| CCOCC1(C)CCCOc2cc(C#Cc3ccc(C(=O)O)cc3)ccc21 (configuration not stated) | 170 to 171 |
| C[C@H]1CCCC(C)(C)[C@@H]1C(=O)c1c(F)c(F)c(F)c(F)c1F | 35.2 to 38 |
| NC(=NCC(F)(F)F)Nc1cncc(Cl)n1 | 139 to 140 |
| Nc1ccc(Cl)c(C2SCCS2)c1 | 60 to 63 |

| Compound | melting point [°C] |
| --- | --- |
| COC(=O)c1sc(-n2cccn2)cc1O | 162 to 164 |
| CCc1nc2c(cnn2CC)c(NC2CCOCC2)c1CNC(=O)c1cccc(C(=O)NCc2ccc(C)c(-c3cccc(CN4CCCNCC4)c3)c2)c1 | 118 to 120 |
| CCCCNC(=O)n1sc(OCC)nc1=O | 54 |
| CC(C)(C#N)c1ccc(-n2c(-c3cc(-c4cnc5ccccc5c4)ccn3)c[nH]c2=O)cc1 | 271 |
| O=C(NCCO)c1cccc(-c2cccc3nn(Cc4cccc(Cl)c4)cc23)c1 | 202 to 203 |
| COC(=O)Nc1cc(C(C)(C)C)[nH]n1 | 177 |
| O=C(O)CNc1cc(Cl)ccc1C(=O)O | 231 |
| O=C(O)c1ccc(COc2ccc3cc(-c4ccc(-c5ccccc5)n4Cc4ccc(C(F)(F)F)cc4)ccc3c2)cc1 | 228 to 229 |
| CN(N=Cc1ccco1)C(=O)c1[nH]c2ccccc2c1-c1ccccc1 | 196 to 199 |
| Brc1ccc(Br)c2nc(-c3ccccc3)c(-c3ccccc3)nc12 | 221 to 223 |
| CC(C)(CCCCOCCCc1ccccc1)NCc1c(CO)ccc(O)c1CO | 67 to 69 |
| CCCN(c1nc(-c2ccc(OC)cc2Cl)c(C)s1)c1cc(-c2ccccc2C)ccc1OC | 55 |
| CCNC(=O)c1c([Si](C)(C)C)ccc(-c2ccccc2)c1Cl | 134 to 135 |
| CSc1nc(-c2ccc(=O)n(C)n2)c(-c2ccccc2)nc1N | 204 to 206 |
| Cc1ccccc1CC1(CO)CCN(C(=O)OC(C)(C)C)CC1 | 104 to 106 |
| O=C(O)c1ccccc1NCCNc1ccccc1C(=O)O | 248 |
| Nc1sc2c(c1C(=O)c1ccco1)CCCC2 | 121 to 122 |
| O=C(CNC(=O)OCc1ccccc1)ON1C(=O)CCC1=O | 110 to 112 |
| O=C(NCC1CC1)c1cccnc1Oc1cncc(Cl)c1 | 105 to 107 |
| C1=CCC2=C(C1)CCc1ccccc1C2CCN1CCCC1 (configuration not stated) | 57 to 58.5 |
| COc1cc2c3ccc(OC)c(OC)c3n(C(=O)CCc3ccccc3)c2cc1OC | 106 to 108 |
| COC(=O)[C@H](CC(C)C)NC(=O)c1ccc2c(c1)Nc1ccccc1S2 | 160 to 161 |
| CCCCCCCNC(=O)N(C)c1cccc(-c2ccc(CCC(=O)NO)cc2)c1 | 100 to 101 |
| CCCN(CCC)C(=O)Cn1c(-c2ccc(OC)cc2)nc2cccnc21 | 127 to 129 |
| CCOC(=O)NOC(=O)c1ccc(C(=O)ONC(=O)OCC)cc1 | 130 |
| Cn1nc(-c2cccc(C(F)(F)F)c2)cc1C(=O)O | 198 to 199 |

| Compound | melting point [°C] |
| --- | --- |
| Cc1ccc(C2(O)CCC(=O)N2C)cc1S(N)(=O)=O (configuration not stated) | 124 |
| CCC(Oc1cccc(C(F)(F)F)n1)C(=O)O (configuration not stated) | 91 |
| CCc1nn(CCNC(=O)OC(C)(C)C)c(CN)c1Oc1cc(Cl)cc(Cl)c1 | 112 to 114 |
| CC1SC(=O)NN=C1c1ccc2c(c1)C(=NN(C)c1ccccc1)C(=O)N2 (configuration not stated) | 260 |
| COC(=O)C(OC)c1ccc2oc(-c3ccc(Cl)cc3)nc2c1 (configuration not stated) | 100 to 105 |
| CCOC(=O)Cc1c(C(=O)OCC)c(C)c(C(=O)OCC)n1CC | 142 to 145 |
| COCc1nc(OC)c(NS(=O)(=O)c2cccc(Cl)c2Cl)nc1Cl | 193 to 196 |
| Cc1cc2ccccn2c1C(=O)c1ccc(O)c(Br)c1 | 216 to 217 |
| CC(C)CNC(=O)/C=C/c1cccc(Cl)c1 | 112 |
| CCOC1CC2(C)C(CCC3C4CC=CC4(C)CC(N(C)C)C32)CC1O (configuration not stated) | 51 to 54 |
| O=c1cc(-c2cc3ccccc3cc2O)oc2ccccc12 | 202 |
| C[C@H](O)CCC[C@H](O)CCCCCc1cccc(O)c1C(=O)O | 83 to 84 |
| COc1ccc(CCNc2nc3nc(-c4ccco4)nc-3c(N)[nH]2)cc1 | 220 to 222 |
| COc1ccc(NC(=O)c2ccccc2C(c2ccc(O)cc2)c2ccc(O)cc2)c(OC)c1 | 122 to 124 |
| CCCC(CNc1nc(C)c(OC)c(C)n1)c1ccccc1 (configuration not stated) | 31 to 33 |
| O=C1C=C(O)CC(c2ccc3c(c2)OCO3)C1 (configuration not stated) | 181 |
| CC(C)n1c(=O)nc(-c2ccc3c(c2)OCCO3)c2cc3c(cc21)OCO3 | 214 to 217 |
| COc1cccc(OC)c1C(=O)NCC(=O)N1c2ccccc2N(Cc2ccccc2)C(=O)[C@H]2CCC[C@H]21 (relative stereo) | 182 to 184 |
| CCCCCCCCc1cnc(-c2ccc(F)cc2)nc1 | 23.5 |
| CC(=O)C(=NO)C(=O)OC(C)(C)C | 55 to 63 |
| CC(Oc1ccccc1)(c1ccc(O)cc1)c1ccc(O)cc1 | 172 to 174 |
| CC(Cn1cnnn1)n1nnc2cc3c(=O)n(C)nnc3cc2c1=O (configuration not stated) | 228 to 230 |
| CCOC(=O)[C@H]1O[C@@H]1C(=O)N[C@@H](CC(C)C)C(=O)c1ccccc1 | 118 to 119 |
| CCOc1cc(S(=O)(=O)CC)ccc1-c1nc2ncccc2[nH]1 | 207 to 208 |
